Patent US11649246B2, “Salts of 4-amino-N-(l-((3-chloro-2-fluorophenyl)amino)-6-methylisoquinolin-5-yl)thieno[3,2-D]pyrimidine-7-carboxamide, and crystalline forms thereof” (Hanmi Pharm. Co., Ltd., priority 2017, dated 2023)
Read-outs that look alike come from different tables or passages of the source.

Experiments:
Format in all cases: physicochemical
[1] = Dissociation constant (pKa), GLpKa method, Sirius T3; settings: for pKa: MDM co-solvent solution (ISA Water/MeOH/ACN/p-Dioxane), 43% MDM solution
Experimental: Based on these pKa values, Formula (I) is believed to be weakly basic compound.
The dissociation, pKa, was measured with a T3 (Sirius Analytical Instrument Ltd., UK). About 1 mg of Formula (I) bis-hydrochloride was transferred to a GLpKa beaker, dissolved with 43% to 53% MDM solution (ISA Water/MeOH/ACN/p-Dioxane=40/20/20/20, Sirius), adjusted to pH 1.8 with 0.5 N HCl, and titrated up to pH 12.2 with 0.5 N KOH. The pKa as an aqueous solution was calculated by extrapolation.

[2] = Hygroscopicity by dynamic vapor sorption (DVS); settings: Form I trihydrate
Experimental: Dynamic vapor sorption (DVS) analysis was performed in a DVS advantage (Surface measurement system, United Kingdom) analyzer at 25° C. with a relative humidity of 0% to 90%. A sample in an amount of 10 mg was placed into a wire-mesh vapor sorption balance pan and then attached to a DVS advantage dynamic vapor sorption balance via surface measurement systems. […] Upon completion of the sorption cycle, the sample was dried using the same process while maintaining a relative humidity of 0%. The changes in the sample weight during the adsorption/desorption cycle (repeated 3 times) were recorded and the hygroscopicity of the sample was measured. DVS isotherm diagrams are presented in FIGS. 1, 3, 6, 10, 13, 16 and 19 where Target PP (%) refers to relative humidity, “SORP” refers to adsorption and “DESORP” refers to desorption.
Hygroscopicity was measured by DVS where the DVS curve for Formula (I) bis-hydrochloride was recorded in a DVS Advantage I analyzer (SMS, United Kingdom). The DVS was operated over 3 cycles for measurement of the surface adsorption effects of water, from 0% RH to 90% RH at 25°.

[3] = Partition / distribution coefficient octanol-water (Sirius T3); settings: octanol/water
Experimental: The partition coefficient, Log P, was measured with a T3 (Sirius Analytical Instrument Ltd., UK). About 1 mg of Formula (I) bis-hydrochloride was added to a 15 mL GLpKa beaker, dissolved with octanol/150 mM KCl, adjusted to pH 1.8 with 0.5 N HCl, and titrated up to pH 12.2 with 0.5 N KOH. The partition coefficient of the octanol-water system was determined by correcting the difference between titration curves of the blank from the titration curve, by inserting the value of the dissociation constant measured previously.

[4] = Long-term stability at 20° C. to 30° C., 60% relative humidity, protection from light; settings: 60% RH
Experimental: The stability of crystalline Formula (I) bis-hydrochloride Form I was evaluated at 3 months, 6 months, 9 months, 12 months, 18 months and 24 under conditions of 20° C. to 30° C. at 60% relative humidity and protection from light. Stability criteria included the following. At each interval from 3 to 24 months the crystalline Formula (I) bis-hydrochloride Form I appeared as a pale brown to off-white powder. Identification was performed by IR, PXRD and HPLC methods as described elsewhere herein with results reported as pass/fail. Purity was determined by HPLC with known impurities at relative retention times (“RRT”) of 1.1, 1.7 and 2.1. The results are shown in Table 22 where “Init” refers to initial, “Iden” refers to identification, “Imp” refers to impurity, “A.U.I.” refers to any unspecified impurity, “T.U.I.” refers to total unspecified impurity, “T.I.” refers to total impurities, and “N.D.” refers to not detected. The PXRD results at initial, 6 months, 12 months and 24 months are depicted in FIG. 33.

[5] = as an aqueous solution, calculated by extrapolation

SMILES: Cc1ccc2c(Nc3cccc(Cl)c3F)nccc2c1NC(=O)c1csc2c(N)ncnc12 [Example 3, 4-amino-N-(1-((3-chloro-2-fluorophenyl)amino)-6-methylisoquinolin-5-yl)thieno[3,2-d]pyrimidine-7-carboxamide]
- pKa ([1]; column 1, read-out: pKa (first value)): 3.85
- pKa ([1]; column 1, read-out: pKa (second value)): 4.71
- pKa ([1]; column 1, read-out: pKa (third value)): 10.4
- pKa ([1]; column 2, read-out: pKa (first value)): 3.88
- pKa ([1]; column 2, read-out: pKa (second value)): 4.7
- pKa ([1]; column 2, read-out: pKa (third value)): 10.4
- pKa ([1]; column 3, read-out: pKa (first value)): 3.84
- pKa ([1]; column 3, read-out: pKa (second value)): 4.69
- pKa ([1]; column 3, read-out: pKa (third value)): 10.4
- pKa1 [1, 5]: 3.86
- pKa2 [1, 5]: 4.73
- pKa3 ([1]; as an aqueous solution, calculated by extrapolation, listed as Formula (I) bis-hydrochloride Form I): 10.3
- water content (DVS) ([2]; at 20% relative humidity (sorption and desorption)): about 9%
- water content (DVS) ([2]; at 90% relative humidity (sorption and desorption)): about 14%
- logD ([3]; pH 1): 0.02
- logD ([3]; pH 1.2): 0.05
- logD ([3]; pH 2): 0.77
- logD ([3]; pH 3): 2.64
- logD ([3]; pH 4): 4.26
- logD ([3]; pH 5): 5.06
- logD ([3]; pH 6): 5.22
- logD ([3]; pH 6.5): 5.24
- logD ([3]; pH 7): 5.24
- logD ([3]; pH 8): 5.24
- logD ([3]; pH 9): 5.23
- logD ([3]; pH 10): 5.11
- logD ([3]; pH 11): 4.71
- logD ([3]; pH 12): 4.4
- A.U.I. (any unspecified impurity) ([4]; 3 mo): 0.03%
- Identity HPLC ([4]; 3 mo): pass
- Imp 1 ([4]; 3 mo): 0.02%
- Imp RRT 1.7 ([4]; 3 mo): 0.08%
- Purity ([4]; 3 mo): 99.8%
- T.I. (total impurities) ([4]; 3 mo): 0.15%
- T.U.I (total unspecified impurity) ([4]; 3 mo): 0.05%
- A.U.I. (any unspecified impurity) ([4]; 6 mo): 0.03%
- Identity HPLC ([4]; 6 mo): pass
- Identity IR ([4]; 6 mo): pass
- Identity PXRD ([4]; 6 mo): pass
- Imp 1 ([4]; 6 mo): 0.03%
- Imp RRT 1.7 ([4]; 6 mo): 0.08%
- Purity ([4]; 6 mo): 99.8%
- T.I. (total impurities) ([4]; 6 mo): 0.16%
- T.U.I (total unspecified impurity) ([4]; 6 mo): 0.05%
- A.U.I. (any unspecified impurity) ([4]; 9 mo): 0.03%
- Identity HPLC ([4]; 9 mo): pass
- Imp 1 ([4]; 9 mo): 0.02%
- Imp RRT 1.7 ([4]; 9 mo): 0.08%
- Purity ([4]; 9 mo): 99.8%
- T.I. (total impurities) ([4]; 9 mo): 0.16%
- T.U.I (total unspecified impurity) ([4]; 9 mo): 0.05%
- A.U.I. (any unspecified impurity) ([4]; 12 mo): 0.06%
- Identity HPLC ([4]; 12 mo): pass
- Identity IR ([4]; 12 mo): Pass
- Identity PXRD ([4]; 12 mo): Pass
- Imp 1 ([4]; 12 mo): 0.02%
- Imp RRT 1.7 ([4]; 12 mo): 0.02%
- Purity ([4]; 12 mo): 99.8%
- T.I. (total impurities) ([4]; 12 mo): 0.14%
- T.U.I (total unspecified impurity) ([4]; 12 mo): 0.09%
- A.U.I. (any unspecified impurity) ([4]; 18 mo): 0.06%
- Identity HPLC ([4]; 18 mo): pass
- Imp 1 ([4]; 18 mo): 0.02%
- Imp RRT 1.7 ([4]; 18 mo): 0.02%
- Purity ([4]; 18 mo): 99.9%
- T.I. (total impurities) ([4]; 18 mo): 0.13%
- T.U.I (total unspecified impurity) ([4]; 18 mo): 0.09%
- A.U.I. (any unspecified impurity) ([4]; 24 mo): 0.06%
- Identity HPLC ([4]; 24 mo): pass
- Imp 1 ([4]; 24 mo): 0.02%
- Imp RRT 1.7 ([4]; 24 mo): 0.02%
- Purity ([4]; 24 mo): 99.8%
- T.I. (total impurities) ([4]; 24 mo): 0.15%
- T.U.I (total unspecified impurity) ([4]; 24 mo): 0.11%
- A.U.I. (any unspecified impurity) ([4]; Init): 0.04%
- Identity HPLC ([4]; Init): pass
- Identity IR ([4]; Init): pass
- Identity PXRD ([4]; Init): pass
- Imp 1 ([4]; Init): 0.01%
- Imp RRT 1.7 ([4]; Init): 0.08%
- Purity ([4]; Init): 99.9%
- T.I. (total impurities) ([4]; Init): 0.14%
- T.U.I (total unspecified impurity) ([4]; Init): 0.05%
